Results on 17 molecules are retold here after publication PMC6222424, “Hits-to-Lead Optimization of the Natural Compound 2,4,6-Trihydroxy-3-geranyl-acetophenone (tHGA) as a Potent LOX Inhibitor: Synthesis, Structure-Activity Relationship (SAR) Study, and Computational Assignment” (Molecules : A Journal of Synthetic Chemistry and Natural …, 2018).

In data set [1] the test system is allergic airway inflammation. Set-up: method as in PMID 22266348. Conditions: acute murine model; compared with Zileuton; cited from earlier work.
The target in data set [2] is T1, soybean LOX-1 (Glycine max, UniProt P08170).
T1 sequence (P08170 1-839): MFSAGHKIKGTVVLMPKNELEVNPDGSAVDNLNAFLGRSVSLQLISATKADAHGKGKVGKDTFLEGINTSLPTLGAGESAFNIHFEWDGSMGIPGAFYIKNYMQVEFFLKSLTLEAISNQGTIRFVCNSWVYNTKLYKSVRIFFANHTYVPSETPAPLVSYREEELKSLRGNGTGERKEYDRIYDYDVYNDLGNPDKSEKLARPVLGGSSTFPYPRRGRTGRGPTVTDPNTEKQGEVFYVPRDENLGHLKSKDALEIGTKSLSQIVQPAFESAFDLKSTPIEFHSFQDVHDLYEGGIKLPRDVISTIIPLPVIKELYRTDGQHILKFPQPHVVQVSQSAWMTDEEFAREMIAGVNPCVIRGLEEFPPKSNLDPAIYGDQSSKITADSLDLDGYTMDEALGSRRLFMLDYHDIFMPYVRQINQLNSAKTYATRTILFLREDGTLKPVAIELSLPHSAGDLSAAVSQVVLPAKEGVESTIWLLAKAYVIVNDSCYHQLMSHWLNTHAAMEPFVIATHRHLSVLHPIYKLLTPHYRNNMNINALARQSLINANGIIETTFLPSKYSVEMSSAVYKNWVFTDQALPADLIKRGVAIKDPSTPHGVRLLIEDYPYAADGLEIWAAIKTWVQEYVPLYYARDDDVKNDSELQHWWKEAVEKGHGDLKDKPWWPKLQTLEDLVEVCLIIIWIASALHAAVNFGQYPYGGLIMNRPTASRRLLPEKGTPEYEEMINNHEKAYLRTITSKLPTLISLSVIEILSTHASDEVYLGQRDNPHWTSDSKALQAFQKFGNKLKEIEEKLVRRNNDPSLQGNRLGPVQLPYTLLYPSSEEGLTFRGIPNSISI
Briefly: Enzyme kinetics study (Michaelis–Menten, Lineweaver–Burk). It is filed as biochemical. On the set-up: purchased. To be noted: for type of inhibition: Lineweaver–Burk plot; for Ki: from slope of Lineweaver–Burk plot vs inhibitor concentration, read-out: Ki (inhibitor constant). How it is done:
Since compounds 3e and tHGA (3a) are competitive inhibitors, there were no changes in maximal velocity.
Kinetics study: Enzyme kinetics was performed similar to the above inhibition assay with slight modification. […] About 10 μL each of 4 linoleic acid substrate concentrations (0.2, 0.3, 0.4, and 0.5 mM) was added to initiate the enzymatic conversion. End product of the reaction was measured at 234 nm over a period of 10 min, with readings taken every 30 s. The type of inhibition (competitive, uncompetitive, noncompetitive) was determined by nonlinear regression Michaelis–Menten enzyme kinetics and the corresponding Lineweaver–Burk plots using 3 concentrations of each inhibitor: 0, 1.57, and 3.13 μg/mL. All experiments were performed in triplicate and the average values and standard errors were plotted. The Km and Vmax values were calculated from the nonlinear regression fitting curve of GraphPad Prism 5.

For data set [3], the target named is T1, soybean LOX-1. On the set-up: purchased; method as in PMID 25100256. Conditions: data published in previous work, read-out: IC50 Value (μM) Mean ± SEM, cited from earlier work.
Data set [4] deals with T1, soybean LOX-1. The experiment in a line: In vitro soybean 15-lipoxygenase (LOX) inhibition assay. To be noted: for inhibition at 100 µg/mL: read-out: % Inhibition (100 μg/mL); for solubility of the compound in the 15-LOX assay: assay could not be carried out. As for the experimental part: Briefly, sodium phosphate buffer (160 μL, 100 mM, pH 8.0), test sample (10 μL), and soybean 15-LOX (1.13.11.12) type I-B solution (20 μL, 320 U/well) were mixed and incubated at room temperature for 15 min. The substrate linoleic acid (10 μL, 0.6 mM) solution was added to initiate the reaction. End product from the enzymatic conversion was measured at absorbance of 234 nm over a period of 6 min and the assay was performed in triplicate. Dimethyl sulfoxide (DMSO) was used as a solvent to dissolve test samples and reference standard. […] IC50 values were calculated by the nonlinear regression fitting curve of GraphPad Prism 5. The percentage of inhibition can be calculated by the following formula [10, 11]: Inhibitory% = ODcontrol−ODsample/ODcontrol

Read-outs that look alike come from different tables or passages of the source.

Turning to `CC(=O)c1c(O)cc(O)c(C/C=C(\C)CCC=C(C)C)c1O` [Compound 3a, 2,4,6-Trihydroxy-3-geranylacetophenone], the “prevention of allergic airway inflammation” value in data set [1] is given as “as effective as Zileuton”. Besides, at soybean LOX-1 [2], the type of inhibition entry is “competitive” and the Ki came out at 41.1 µM. Further, at soybean LOX-1 [3] (listed as 3a (tHGA)), the IC50 was 23.6 ± 1.7 µM.
For `CC(C)=CCC/C(C)=C/Cc1c(O)cc(O)c(C(=O)C(C)C)c1O` [Compound 3b], the IC50 on soybean LOX-1 [3] is 27.6 ± 3.6 µM.
In the case of `CCC(=O)c1c(O)cc(O)c(C/C=C(\C)CCC=C(C)C)c1O` [Compound 3c, (E)-1-(3-(3,7-dimethylocta-2,6-dienyl)-2,4,6-trihydroxyphenyl)propan-1-one], at soybean LOX-1 [3], the IC50 was 12.3 ± 0.6 µM.
Molecule `CCCC(=O)c1c(O)cc(O)c(C/C=C(\C)CCC=C(C)C)c1O` [Compound 3d, (E)-1-(3-(3,7-dimethylocta-2,6-dienyl)-2,4,6-trihydroxyphenyl)butan-1-one] had a melting point of 116 to 118 °C. In addition, at soybean LOX-1 [4], the IC50 is 15.3 ± 0.5 µM and the inhibition at 100 µg/mL is 90.7 ± 5%.
`CCCCC(=O)c1c(O)cc(O)c(C/C=C(\C)CCC=C(C)C)c1O` [Compound 3e, (E)-1-(3-(3,7-dimethylocta-2,6-dienyl)-2,4,6-trihydroxyphenyl)pentan-1-one]: at soybean LOX-1 [2], the type of inhibition result is given as “competitive” and the Ki is 36.1 µM. The “fold less active than the standard drug NDGA” value on soybean LOX-1 [4] (IC50 compared with NDGA) is 100 fold. For the same molecule, the IC50 at soybean LOX-1 [3] was 10.3 µM.
On to `CC(C)=CCC/C(C)=C/Cc1c(O)cc(O)c(C(=O)C2CCCCC2)c1O` [Compound 3f], for which the IC50 at soybean LOX-1 [3] was 26.3 ± 1.3 µM.
Take `CC(=O)c1c(O)cc(O)c(CC=C(C)C)c1O` [Compound 4a, 1-(2,4,6-trihydroxy-3-(3-methylbut-2-enyl)phenyl)ethanone]: at soybean LOX-1 [4], 72.1 ± 1.2 µM corresponded to half-maximal inhibition (IC50) and the inhibition at 100 µg/mL worked out at 94.8 ± 5.2%.
Regarding `CC(C)=CCc1c(O)cc(O)c(C(=O)C(C)C)c1O` [Compound 4b, 2-methyl-1-(2,4,6-trihydroxy-3-(3-methylbut-2 enyl)phenyl)propan-1-one], on soybean LOX-1 [4], the IC50 was 53.7 ± 0.7 µM and the inhibition at 100 µg/mL was found to be 82.5 ± 7.3%.
For `CCC(=O)c1c(O)cc(O)c(CC=C(C)C)c1O` [Compound 4c, 1-(2,4,6-trihydroxy-3-(3-methylbut-2-enyl)phenyl)propan-1-one], the melting point was in the range of 138 to 140 °C. On soybean LOX-1 [4], the IC50 stood at 61 ± 1.1 µM and the inhibition at 100 µg/mL was 78.1 ± 3.9%.
With `CCCC(=O)c1c(O)cc(O)c(CC=C(C)C)c1O` [Compound 4d, 1-(2,4,6-trihydroxy-3-(3-methylbut-2-enyl)phenyl)butan-1-one], on soybean LOX-1 [4], the IC50 was 39.5 ± 1.2 µM and the inhibition at 100 µg/mL was found to be 86.2 ± 6.9%.
As to `CCCCC(=O)c1c(O)cc(O)c(CC=C(C)C)c1O` [Compound 4e, 1-(2,4,6-trihydroxy-3-(3-methylbut-2-enyl)phenyl)pentan-1-one], the melting point is 133 to 135 °C. Also, at soybean LOX-1 [4], the IC50 worked out at 35.1 ± 1.3 µM and the inhibition at 100 µg/mL stood at 79.4 ± 6.7%.
With `CC(C)=CCc1c(O)cc(O)c(C(=O)C2CCCCC2)c1O` [Compound 4f, Cyclohexyl(2,4,6-trihydroxy-3-(3-methylbut-2-enyl)phenyl)methanone], at soybean LOX-1 [4], the IC50 stood at 52.6 ± 1 µM and the inhibition at 100 µg/mL worked out at 93.7 ± 3.8%.
As to `CC(C)=CCc1c(O)cc(O)c(C(=O)/C=C/c2ccccc2)c1O` [Compound 4g, (E)-3-phenyl-1-(2,4,6-trihydroxy-3-(3-methylbut-2-enyl)phenyl)prop-2-en-1-one], the melting point is 203 to 205 °C. Besides, on soybean LOX-1 [4], the IC50 was found to be 95.4 ± 4 µM and the inhibition at 100 µg/mL turned out to be 95.2 ± 3.2%.
`COc1cc(OC)c(C(C)=O)c(O)c1C/C=C(\C)CCC=C(C)C` [Compound 5a, (E)-1-(3-(3,7-dimethylocta-2,6-dienyl)-2-hydroxy-4,6-dimethoxyphenyl)ethanone] showed a melting point of 72 to 74 °C. For the same molecule, the “solubility of the compound in the 15-LOX assay” value (shortened to “solubility of the compound”) on soybean LOX-1 [4] is on record as “insolubility”.
As to `CCCCC(=O)c1c(OC)cc(OC)c(C/C=C(\C)CCC=C(C)C)c1O` [Compound 5e, (E)-1-(3-(3,7-dimethylocta-2,6-dienyl)-2-hydroxy-4,6-dimethoxyphenyl)pentan-1-one], the “solubility of the compound” value on soybean LOX-1 [4] is reported as “insolubility”.
Regarding `COc1cc(OC)c(C(C)=O)c(O)c1CC=C(C)C` [Compound 6a, 1-(2-hydroxy-4,6-dimethoxy-3-(3-methylbut-2-enyl)phenyl)ethanone], the melting point lay in the range of 97 to 99 °C. Also, at soybean LOX-1 [4], the “solubility of the compound” value is recorded as “insolubility”.
Molecule `CCCCC(=O)c1c(OC)cc(OC)c(CC=C(C)C)c1O` [Compound 6e, 1-(2-hydroxy-4,6-dimethoxy-3-(3-methylbut-2-enyl)phenyl)pentan-1-one] came in with a melting point of 84 to 86 °C. Further, the “solubility of the compound” value at soybean LOX-1 [4] is on record as “insolubility”.

By Ki is commonly meant the dissociation constant of the complex between target and ligand, obtained from inhibition or displacement. What is called IC50 is the concentration at which inhibition is half-maximal. What is called melting point is the temperature of the solid-liquid transition.
